{"source": "paper PMC4001115", "about": "(International journal of toxicology, 2014)", "key": {"[1]": {"system": "bone marrow polychromatic erythrocytes (PCEs)", "assay": "Bone marrow micronucleus analysis", "format": "in vivo, CD-1 mice", "settings": "DAC 1.0 mg/kg; for Number of MPCE/1000 PCE (Mean +/− SD): single animal"}, "[2]": {"assay": "Toxicokinetics: plasma DAC by LC-MS/MS after oral gavage", "format": "in vivo, CD-1 mice", "settings": "for Cmax / AUC: plasma, po; for AUC: AUCfit"}, "CD-1 mice": {"system": "CD-1 mice", "assay": "Microscopic findings", "format": "in vivo", "settings": "THU/DAC 167/0.0 mg/kg; for Cytoplasmic Alteration, MK (Minimal): bone marrow"}, "monkey": {"system": "monkey", "settings": "single intravenous injections up to 1 g/kg; cited from earlier work"}, "beagle dog": {"system": "beagle dog", "settings": "single intravenous injections up to 1 g/kg; cited from earlier work"}, "[3]": {"settings": "mice, 100 mg/kg po, cited from earlier work"}, "[4]": {"settings": "male, CD-1, mouse, 0.2 mg/kg, males, THU/DAC 167/0.2 mg/kg, Day 1"}, "[5]": {"settings": "male, CD-1, mouse, 0.2 mg/kg, males, THU/DAC 167/0.2 mg/kg, Day 58"}, "[6]": {"settings": "male, CD-1, mouse, 0.4 mg/kg, males, THU/DAC 167/0.4 mg/kg, Day 1"}, "[7]": {"settings": "male, CD-1, mouse, 0.4 mg/kg, males, THU/DAC 167/0.4 mg/kg, Day 58"}, "[8]": {"settings": "male, CD-1, mouse, 1 mg/kg, males, THU/DAC 0/1.0 mg/kg, Day 1"}, "[9]": {"settings": "male, CD-1, mouse, 1 mg/kg, males, THU/DAC 0/1.0 mg/kg, Day 58"}, "[10]": {"settings": "male, CD-1, mouse, 1 mg/kg, males, THU/DAC 167/1.0 mg/kg, Day 1"}, "[11]": {"settings": "male, CD-1, mouse, 1 mg/kg, males, THU/DAC 167/1.0 mg/kg, Day 58"}}, "data": [{"smiles": "Nc1ncn([C@H]2C[C@H](O)[C@@H](CO)O2)c(=O)n1", "note": "[DAC, 5-aza-2’-deoxycytidine]", "values": [{"measurement": "Number of MPCE/PCE Scored", "setting": "[1]; F", "value": "^*73 / 2000"}, {"measurement": "PCE/Total Erythrocytes (Mean+/−SD)", "setting": "[1]; F", "value": "0.168±0.05"}, {"measurement": "PCE/Total Erythrocytes, Change from Control", "setting": "[1]; F", "value": "−65", "unit": "%"}, {"measurement": "Number of MPCE/1000 PCE (Mean +/− SD)", "setting": "[1]; F", "value": "36.5 ± ^1SD"}, {"measurement": "Number of MPCE/PCE Scored", "setting": "[1]; M", "value": "^*41 / 2000"}, {"measurement": "PCE/Total Erythrocytes (Mean+/−SD)", "setting": "[1]; M", "value": "0.127±0.06"}, {"measurement": "PCE/Total Erythrocytes, Change from Control", "setting": "[1]; M", "value": "−73", "unit": "%"}, {"measurement": "Number of MPCE/1000 PCE (Mean +/− SD)", "setting": "[1]; M", "value": "20.5 ± ^1SD"}, {"measurement": "DAC detectable in plasma through (post dose)", "setting": "[2]; both, CD-1, mouse, in vivo", "value": 180, "unit": "min"}, {"measurement": "DAC exposure, female mice compared to males", "setting": "[2]; both, CD-1, mouse, in vivo", "value": "~ 2 fold"}, {"measurement": "Cmax", "setting": "[2]; female, CD-1, mouse, 0.2 mg/kg, females, THU/DAC 167/0.2 mg/kg, Day 1", "value": 1900, "unit": "nM"}, {"measurement": "Cmax", "setting": "[2]; female, CD-1, mouse, 0.2 mg/kg, females, THU/DAC 167/0.2 mg/kg, Day 58", "value": 960, "unit": "nM"}, {"measurement": "Cmax", "setting": "[2]; female, CD-1, mouse, 0.4 mg/kg, females, THU/DAC 167/0.4 mg/kg, Day 1", "value": 2780, "unit": "nM"}, {"measurement": "Cmax", "setting": "[2]; female, CD-1, mouse, 0.4 mg/kg, females, THU/DAC 167/0.4 mg/kg, Day 58", "value": 1650, "unit": "nM"}, {"measurement": "Cmax", "setting": "[2]; female, CD-1, mouse, 1 mg/kg, females, THU/DAC 0/1.0 mg/kg, Day 1", "value": 2050, "unit": "nM"}, {"measurement": "Cmax", "setting": "[2]; female, CD-1, mouse, 1 mg/kg, females, THU/DAC 0/1.0 mg/kg, Day 58", "value": 1230, "unit": "nM"}, {"measurement": "DAC detectable in plasma through (post dose)", "setting": "[2]; male, CD-1, mouse, in vivo", "value": 120, "unit": "min"}, {"measurement": "AUC", "setting": "[2]; [4]", "value": 1.57, "unit": "µM·h"}, {"measurement": "AUC", "setting": "[2]; [5]", "value": 1.25, "unit": "µM·h"}, {"measurement": "Cmax", "setting": "[2]; [4]", "value": 1180, "unit": "nM"}, {"measurement": "Cmax", "setting": "[2]; [5]", "value": 700, "unit": "nM"}, {"measurement": "AUC", "setting": "[2]; [6]", "value": 3.08, "unit": "µM·h"}, {"measurement": "AUC", "setting": "[2]; [7]", "value": 2.11, "unit": "µM·h"}, {"measurement": "Cmax", "setting": "[2]; [6]", "value": 2620, "unit": "nM"}, {"measurement": "Cmax", "setting": "[2]; [7]", "value": 980, "unit": "nM"}, {"measurement": "AUC", "setting": "[2]; [8]", "value": 0.864, "unit": "µM·h"}, {"measurement": "AUC", "setting": "[2]; [9]", "value": 0.976, "unit": "µM·h"}, {"measurement": "AUC", "setting": "[2]; [10]", "value": 7.65, "unit": "µM·h"}, {"measurement": "AUC", "setting": "[2]; [11]", "value": 5.87, "unit": "µM·h"}, {"measurement": "Cmax", "setting": "[2]; [8]", "value": 1750, "unit": "nM"}, {"measurement": "Cmax", "setting": "[2]; [9]", "value": 1200, "unit": "nM"}, {"measurement": "Cmax", "setting": "[2]; [10]", "value": 5810, "unit": "nM"}, {"measurement": "Cmax", "setting": "[2]; [11]", "value": 4740, "unit": "nM"}, {"measurement": "time of plasma DAC Cmax", "setting": "[2]; oral DAC with or without THU", "value": "≤ 1", "unit": "h"}]}, {"smiles": "O=C1NC(O)CCN1[C@@H]1O[C@H](CO)[C@@H](O)[C@H]1O", "note": "(stereo partly drawn) [THU, tetrahydrouridine]", "values": [{"measurement": "Cytoplasmic Alteration, MK (Minimal)", "setting": "CD-1 mice; females, Day 59", "value": "0/10"}, {"measurement": "Cytoplasmic Alteration, MK (Minimal)", "setting": "CD-1 mice; males, Day 59", "value": "0/10"}, {"measurement": "Bone Marrow Cytoplasmic Alteration, MK, Minimal", "setting": "CD-1 mice; females, Day 31", "value": "0/6"}, {"measurement": "Bone Marrow Hypocellularity, Marked", "setting": "CD-1 mice; females, Day 31", "value": "0/6"}, {"measurement": "Bone Marrow Hypocellularity, Moderate", "setting": "CD-1 mice; females, Day 31", "value": "0/6"}, {"measurement": "Duodenum Apoptosis, Minimal-Mild", "setting": "CD-1 mice; females, Day 31", "value": "0/6"}, {"measurement": "Ileum Apoptosis, Minimal-Mild", "setting": "CD-1 mice; females, Day 31", "value": "0/6"}, {"measurement": "Jejunum Apoptosis, Minimal-Mild", "setting": "CD-1 mice; females, Day 31", "value": "0/6"}, {"measurement": "Spleen Proliferation, MK, Red Pulp, Minimal-Mild", "setting": "CD-1 mice; females, Day 31", "value": "0/6"}, {"measurement": "Thymus Depletion, Lymphoid Cortex, Marked", "setting": "CD-1 mice; females, Day 31", "value": "0/5"}, {"measurement": "Thymus Depletion, Lymphoid Cortex, Mild-Moderate", "setting": "CD-1 mice; females, Day 31", "value": "0/5"}, {"measurement": "Uterus Atrophy, Mild", "setting": "CD-1 mice; females, Day 31", "value": "0/6"}, {"measurement": "Bone Marrow Hypocellularity, Marked", "setting": "CD-1 mice; females, Day 59", "value": "0/10"}, {"measurement": "Bone Marrow Hypocellularity, Moderate", "setting": "CD-1 mice; females, Day 59", "value": "0/10"}, {"measurement": "Duodenum Apoptosis, Minimal-Mild", "setting": "CD-1 mice; females, Day 59", "value": "0/10"}, {"measurement": "Ileum Apoptosis, Minimal-Mild", "setting": "CD-1 mice; females, Day 59", "value": "0/10"}, {"measurement": "Jejunum Apoptosis, Minimal-Mild", "setting": "CD-1 mice; females, Day 59", "value": "0/10"}, {"measurement": "Spleen Proliferation, MK, Red Pulp, Minimal-Mild", "setting": "CD-1 mice; females, Day 59", "value": "0/10"}, {"measurement": "Uterus Atrophy, Mild", "setting": "CD-1 mice; females, Day 59", "value": "0/10"}, {"measurement": "Bone Marrow Cytoplasmic Alteration, MK, Minimal", "setting": "CD-1 mice; males, Day 31", "value": "0/6"}, {"measurement": "Bone Marrow Hypocellularity, Marked", "setting": "CD-1 mice; males, Day 31", "value": "0/6"}, {"measurement": "Bone Marrow Hypocellularity, Moderate", "setting": "CD-1 mice; males, Day 31", "value": "0/6"}, {"measurement": "Duodenum Apoptosis, Minimal-Mild", "setting": "CD-1 mice; males, Day 31", "value": "0/6"}, {"measurement": "Epididymides Hypospermia, Head, Marked", "setting": "CD-1 mice; males, Day 31", "value": "0/6"}, {"measurement": "Epididymides Hypospermia, Head, Minimal-moderate", "setting": "CD-1 mice; males, Day 31", "value": "0/6"}, {"measurement": "Epididymides Hypospermia, Tail, Mild-moderate", "setting": "CD-1 mice; males, Day 31", "value": "0/6"}, {"measurement": "Ileum Apoptosis, Minimal-Mild", "setting": "CD-1 mice; males, Day 31", "value": "0/6"}, {"measurement": "Jejunum Apoptosis, Minimal-Mild", "setting": "CD-1 mice; males, Day 31", "value": "0/6"}, {"measurement": "Spleen Proliferation, MK, Red Pulp, Minimal-Mild", "setting": "CD-1 mice; males, Day 31", "value": "0/6"}, {"measurement": "Testis Degeneration, Seminiferous Tubules, Marked", "setting": "CD-1 mice; males, Day 31", "value": "0/6"}, {"measurement": "Testis Degeneration, Seminiferous Tubules, Minimal-mild", "setting": "CD-1 mice; males, Day 31", "value": "0/6"}, {"measurement": "Testis Degeneration, Seminiferous Tubules, Moderate", "setting": "CD-1 mice; males, Day 31", "value": "0/6"}, {"measurement": "Thymus Depletion, Lymphoid Cortex, Marked", "setting": "CD-1 mice; males, Day 31", "value": "0/6"}, {"measurement": "Thymus Depletion, Lymphoid Cortex, Mild-Moderate", "setting": "CD-1 mice; males, Day 31", "value": "0/6"}, {"measurement": "Bone Marrow Hypocellularity, Marked", "setting": "CD-1 mice; males, Day 59", "value": "0/10"}, {"measurement": "Bone Marrow Hypocellularity, Moderate", "setting": "CD-1 mice; males, Day 59", "value": "0/10"}, {"measurement": "Duodenum Apoptosis, Minimal-Mild", "setting": "CD-1 mice; males, Day 59", "value": "0/10"}, {"measurement": "Epididymides Hypospermia, Head, Marked", "setting": "CD-1 mice; males, Day 59", "value": "0/10"}, {"measurement": "Epididymides Hypospermia, Head, Moderate", "setting": "CD-1 mice; males, Day 59", "value": "0/10"}, {"measurement": "Epididymides Hypospermia, Tail, Mild-moderate", "setting": "CD-1 mice; males, Day 59", "value": "0/10"}, {"measurement": "Ileum Apoptosis, Minimal-Mild", "setting": "CD-1 mice; males, Day 59", "value": "0/10"}, {"measurement": "Jejunum Apoptosis, Minimal-Mild", "setting": "CD-1 mice; males, Day 59", "value": "0/10"}, {"measurement": "Spleen Proliferation, MK, Red Pulp, Minimal-Mild", "setting": "CD-1 mice; males, Day 59", "value": "0/10"}, {"measurement": "Testis Degeneration, Seminiferous Tubules, Marked", "setting": "CD-1 mice; males, Day 59", "value": "0/10"}, {"measurement": "Testis Degeneration, Seminiferous Tubules, Mild-moderate", "setting": "CD-1 mice; males, Day 59", "value": "0/10"}, {"measurement": "Testis Degeneration, Seminiferous Tubules, Severe", "setting": "CD-1 mice; males, Day 59", "value": "0/10"}, {"measurement": "Thymus Depletion, Lymphoid Cortex, Marked", "setting": "CD-1 mice; males, Day 59", "value": "0/10"}, {"measurement": "Thymus Depletion, Lymphoid Cortex, Mild-Moderate", "setting": "CD-1 mice; males, Day 59", "value": "0/10"}, {"measurement": "toxic effects", "setting": "monkey", "value": "no notable toxic effects"}, {"measurement": "toxic effects", "setting": "beagle dog", "value": "no notable toxic effects"}, {"measurement": "half life", "setting": "[3]", "value": 1.42, "unit": "h"}, {"measurement": "oral bioavailability", "setting": "[3]", "value": 20, "unit": "%"}, {"measurement": "sustained plasma concentrations that inhibit CDA", "setting": "[3]; for several hours", "value": "> 1", "unit": "µg/mL"}]}]}
